The source of these data is patent publication US10954348B2, “Biocompatible nanoparticle and use thereof” (KYUNGPOOK NATIONAL UNIVERSITY INDUSTRY-ACADEMIC COOPERATION …, priority 2016, dated 2021).

Structures are written as SMILES. Entries after “also recorded” stand apart in the source; their conditions may differ.

Data set [1] has as its system Colorectal cancer mouse tumor models (CT26 tumor model). Nature of the data set: In vivo tumor growth inhibition. The following applies: CT26 tumor mice, 200 μg doxorubicin i.v. three times at intervals of two days, over 33 days, versus PBS blank group. Here is the method: Experiments were conducted to compare and investigate the ability of doxorubicin-conjugated dextran-based nanoparticles whether the nanoparticles could be used as a therapeutic agent capable of inhibiting tumor growth. Colorectal cancer mouse tumor models (CT26 tumor model) were used as tumor models in the experiments. 5×10^6 cells were injected into the flank of mice, and after 10 days, the tumors were visually recognized, and the mice were used for the experiments. The experiments were started by dividing the animal models into a blank group treated with PBS, a group treated with free doxorubicin (free DOX), and a group treated with doxorubicin-conjugated PEG-DNP (DOX@PEG-DNP)). The number of mice corresponding to each group was three, and each administration material was administered to the mouse tumor models via intravenous injection three times at intervals of two days. Here, the amounts of doxorubicin administered to the group treated with free doxorubicin and the group treated with doxorubicin-conjugated PEG-DNP (DOX@PEG-DNP) were 200 μg.
The size of tumors and the weight of mice in the tumor model were checked over 33 days, and the measurement results were monitored and compared. […] As time passed, there was a slight difference in body weight among the groups, but this was thought to be due to the difference of tumor size in the respective groups.

The format of data set [2] is in vivo. The following applies: CT26 tumor mice, 200 μg doxorubicin i.v. three times at intervals of two days, over 33 days.

With `COc1cccc2c1C(=O)c1c(O)c3c(c(O)c1C2=O)C[C@@](O)(C(=O)CO)C[C@@H]3O[C@H]1C[C@H](N)[C@H](O)[C@H](C)O1` [free doxorubicin, doxorubicin], the tumor growth inhibition result in data set [1] is given as “the tumor growth rate of only one of three mice was not inhibited; also recorded: surely inhibited the tumor growth rate compared with the blank group”. The body weight change result in data set [2] was “the body weight was not rapidly reduced”.
